Assay results taken from patent US7537906B2, “Apoptosis inducer and method of screening for a substance inhibiting acylated homoserine lactone” (priority 2003, dated 2009).

Test system: CaCo-2 cells
Test: Effects of kinase inhibitors on N-(3-oxododecanoyl)-L-homoserine lactone-dependent apoptosis, viability by Trypan blue staining
Assay type: cell-based, human
Conditions: then 30 μM N-(3-oxododecanoyl)-L-homoserine lactone, 12 hours
Description: 2×10^5 CaCo-2 cells were inoculated per 3.5 cm dish, cultured for 12 hours in the presence of 10% serum, washed twice with PBS (-), and then synchronously cultured in a serum-free medium for 24 hours. Pretreatment with various inhibitors (50 μM PD98059 and 20 μM SB203580) or DMSO was carried out for 30 minutes. Then 30 μM N-(3-oxododecanoyl)-L-homoserine lactone or DMSO was added, the cells were cultured for 12 hours, and then viability was measured by Trypan blue staining.

Structure (SMILES): COc1cccc(-c2cc(=O)c3ccccc3o2)c1N [PD98059]
- effect of pretreatment on viability (50 μM pretreatment 30 minutes): no effect

Structure (SMILES): C[S+]([O-])c1ccc(-c2nc(-c3ccncc3)c(-c3ccc(F)cc3)[nH]2)cc1 (centres unmarked) [SB203580]
- viability at 20 µM (Homo sapiens, 20 μM pretreatment 30 minutes): 35%
